Laboratory results published in article PMC3845904 (Chemical research in toxicology, 2009).
Where “and” joins values, the source holds several entries; their conditions need not be identical. Equal entries are not always repeated.

Assays:
[1] = target: T1, human P450 1B1 (Homo sapiens, UniProt Q16678); experiment: biochemical
T1 sequence (Q16678 1-543): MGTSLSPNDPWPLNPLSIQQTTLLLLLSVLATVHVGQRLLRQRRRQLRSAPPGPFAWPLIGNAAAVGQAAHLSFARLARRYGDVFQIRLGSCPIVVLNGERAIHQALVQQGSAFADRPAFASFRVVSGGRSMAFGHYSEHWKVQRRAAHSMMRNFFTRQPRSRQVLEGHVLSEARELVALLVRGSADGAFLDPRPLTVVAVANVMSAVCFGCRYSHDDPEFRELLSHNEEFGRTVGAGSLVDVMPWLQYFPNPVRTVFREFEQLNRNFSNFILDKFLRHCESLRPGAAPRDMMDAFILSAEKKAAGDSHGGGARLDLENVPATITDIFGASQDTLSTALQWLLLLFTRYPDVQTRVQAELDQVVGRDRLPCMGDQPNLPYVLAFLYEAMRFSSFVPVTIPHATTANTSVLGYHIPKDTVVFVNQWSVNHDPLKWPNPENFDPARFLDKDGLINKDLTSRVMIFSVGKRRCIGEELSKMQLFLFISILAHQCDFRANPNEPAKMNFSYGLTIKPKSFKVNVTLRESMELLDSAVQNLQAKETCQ

[2] = target: T1, human P450 1B1; experiment: Spectral binding titration; conditions: for Reverse Type I spectra ΔAmax/Ks (magnitude of spectral binding) / Reverse Type I spectra ΔAmax: purified P450 1B1 1.0 μM, ND = not detected at 100 μM; for Reverse Type I spectra ΔAmax: means ± SEs
[3] = target: P450 1A2 (Homo sapiens, UniProt P05177); experiment: Inhibition of EROD activity catalyzed by P450 1A2; format: biochemical; conditions: Figure 4
Sequence of P450 1A2 (P05177 whole entry): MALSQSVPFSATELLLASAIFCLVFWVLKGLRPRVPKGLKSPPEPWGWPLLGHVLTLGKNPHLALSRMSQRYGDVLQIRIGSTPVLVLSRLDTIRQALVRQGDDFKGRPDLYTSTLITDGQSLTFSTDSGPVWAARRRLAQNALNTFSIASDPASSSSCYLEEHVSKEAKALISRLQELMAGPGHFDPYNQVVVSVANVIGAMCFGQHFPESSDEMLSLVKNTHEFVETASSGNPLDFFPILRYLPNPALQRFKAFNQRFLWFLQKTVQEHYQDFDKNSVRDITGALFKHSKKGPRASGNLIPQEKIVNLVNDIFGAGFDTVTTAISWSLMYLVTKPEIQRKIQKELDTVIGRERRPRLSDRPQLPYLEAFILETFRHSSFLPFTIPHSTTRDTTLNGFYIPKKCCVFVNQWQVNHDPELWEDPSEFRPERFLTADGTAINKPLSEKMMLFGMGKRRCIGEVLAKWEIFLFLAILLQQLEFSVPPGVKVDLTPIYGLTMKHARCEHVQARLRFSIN

Compound	IC50 [1]	Kd [2]	Reverse Type I spectra ΔAmax/Ks (magnitude of spectral binding) [2]	Reverse Type I spectra ΔAmax [2]	inhibition of P450 1A2 EROD (in words) [3]
COc1ccc(-c2cc(=O)c3ccc(O)c(O)c3o2)cc1OC [34DM78DHF, 3′,4′-dimethoxy-7,8-dihydroxyflavone]	19 ± 2.3 µM	190 ± 17 µM	0.0003	0.053 ± 0.003	–
COc1ccc(-c2cc(=O)c3ccc(O)c(O)c3o2)cc1 [4M78DHF]	1.1 ± 0.2 µM	56 ± 15 µM	0.0013	0.073 ± 0.009	–
c1cc2ccc3cccc4ccc(c1)c2c34 [pyrene, reference compound]	0.025 ± 0.003 µM	1.3 ± 0.1 µM	0.0338	0.044 ± 0.001	–
C#Cc1cc2ccccc2c2ccccc12 [9EPh, 9-ethynylphenanthrene]	0.12 ± 0.01 µM	–	0.0197	0.071 ± 0.004	–
CC#Cc1ccc2ccc3cccc4ccc1c2c34 [1PP, 1-(1-propynyl)pyrene]	0.045 ± 0.005 µM	–	0.0156	0.042 ± 0.002	–
COc1ccc(-c2cc(=O)c3ccccc3o2)cc1OC [34DMF, 3′,4′-dimethoxyflavone]	0.26 ± 0.03 µM	24 ± 3.2 µM	0.0021	0.051 ± 0.003	–
COc1ccc(-c2cc(=O)c3ccccc3o2)cc1 [4MF, 4′-methoxyflavone]	0.23 ± 0.03 µM	66 ± 11 µM	–	–	–
C[C@]12CC[C@@H]3c4ccc(O)cc4CC[C@H]3[C@@H]1CC[C@@H]2O [E2, 17β-estradiol, reference compound]	–	–	0.0005	0.039 ± 0.007	–
COc1cc(C=Cc2ccc(OC)cc2OC)cc(OC)c1 [TMS, 2,4,3′,5′-tetramethoxystilbene, reference compound]	–	–	0.0110	–	–
C#Cc1ccc(-c2ccccc2)cc1 [4EB, 4-ethynylbiphenyl]	2.2 ± 0.3 µM	–	0.0030	0.023 ± 0.001	–
COc1cccc(-c2cc(=O)c3c(O)cc(O)cc3o2)c1 [3M57DHF, 3′-methoxy-5,7-dihydroxyflavone]	0.11 ± 0.02 µM	20 ± 3 µM	0.0037	0.075 ± 0.008	–
c1ccc(-c2ccccc2)cc1 [biphenyl, reference compound]	19 ± 2.3 µM	140 ± 19 µM	0.0003	0.037 ± 0.008	–
C=Cc1ccc2ccc3cccc4ccc1c2c34 [1VP, 1-vinylpyrene]	0.15 ± 0.02 µM	4.4 ± 0.3 µM	0.0209	0.092 ± 0.003	–
C#CCOc1ccc(-c2ccc(OCC#C)cc2)cc1 [44BDPE, 4,4-biphenyl dipropargyl ether]	–	–	0.0013	0.031 ± 0.002	–
c1ccc2c(c1)ccc1ccccc12 [Phenanthrene, phenanthrene, reference compound]	0.51 ± 0.1 µM	14 ± 1.7 µM	0.0031	0.044 ± 0.002	–
C#Cc1ccc2ccccc2c1 [2EN, 2-ethynylnaphthalene]	1.2 ± 0.2 µM	–	0.0033	0.049 ± 0.002	–
c1ccc2ccccc2c1 [naphthalene, reference compound]	~26 µM and 26 µM	–	–	–	weak
Oc1ccc(/C=C/c2cc(O)cc(O)c2)cc1 [resveratrol (Res), resveratrol, reference compound]	1.2 ± 0.2 µM	28 ± 3.3 µM	0.0012	0.034 ± 0.004	–
COc1ccccc1-c1cc(=O)c2c(O)cc(O)cc2o1 [2M57DHF, 2′-methoxy-5,7-dihydroxyflavone]	0.24 ± 0.02 µM	64 ± 10 µM	0.0016	0.100 ± 0.011	–
COc1cccc(-c2cc(=O)c3ccccc3o2)c1 [3MF, 3′-methoxyflavone]	0.15 ± 0.02 µM	51 ± 4.1 µM	0.0006	0.029 ± 0.001	–
COc1cccc(-c2cc(=O)c3ccc(O)c(O)c3o2)c1 [3M78DHF, 3′-methoxy-7,8-dihydroxyflavone]	3.7 ± 0.5 µM	140 ± 15 µM	0.0003	0.044 ± 0.005	–
